Structures are written as SMILES. “Also recorded” adds a separate entry of the source.

In one data set the target is CYP2C19 (Homo sapiens, UniProt P33261). The experiment in a line: in vitro. The conditions noted are these: pooled human liver microsomes, pH 7.4, probe (S)-mephenytoin.
The target of another data set is T1, CYP2B6 (Homo sapiens, UniProt P20813).
T1 sequence (P20813 1-491): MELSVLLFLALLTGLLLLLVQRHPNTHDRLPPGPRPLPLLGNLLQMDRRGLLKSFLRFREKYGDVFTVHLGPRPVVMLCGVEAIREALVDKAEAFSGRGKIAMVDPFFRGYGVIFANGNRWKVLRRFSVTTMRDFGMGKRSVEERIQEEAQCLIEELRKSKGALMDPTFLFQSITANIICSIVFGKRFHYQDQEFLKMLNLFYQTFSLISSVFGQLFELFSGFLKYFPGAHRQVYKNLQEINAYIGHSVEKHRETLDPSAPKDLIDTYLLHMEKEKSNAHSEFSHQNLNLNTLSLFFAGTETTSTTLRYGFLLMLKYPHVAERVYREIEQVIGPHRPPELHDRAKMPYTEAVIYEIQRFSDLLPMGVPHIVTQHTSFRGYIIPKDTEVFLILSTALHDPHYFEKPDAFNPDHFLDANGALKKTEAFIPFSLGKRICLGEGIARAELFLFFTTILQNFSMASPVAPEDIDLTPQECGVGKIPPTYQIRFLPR
Put plainly: biochemical.

The next data set concerns the target CYP2D6 (Homo sapiens, UniProt P10635). Put plainly: Time-dependent inhibition (IC50 shift) of CYP2D6 in human liver microsomes. The note with it: risdiplam up to 12.5 μM. It is filed as in vitro ADME. The protocol: (§1) Donors CMV negative for serology are unm
(§2) All incubations were conducted in duplicate.
(§3) % remaining=(C+I/C^−I)*100
(In general: Microsomes from liver hold many membrane-bound enzymes, among them those of drug oxidation.)

For another data set, the target named is T2, CYP2C8 (Homo sapiens, UniProt P10632).
T2 sequence (P10632 1-490): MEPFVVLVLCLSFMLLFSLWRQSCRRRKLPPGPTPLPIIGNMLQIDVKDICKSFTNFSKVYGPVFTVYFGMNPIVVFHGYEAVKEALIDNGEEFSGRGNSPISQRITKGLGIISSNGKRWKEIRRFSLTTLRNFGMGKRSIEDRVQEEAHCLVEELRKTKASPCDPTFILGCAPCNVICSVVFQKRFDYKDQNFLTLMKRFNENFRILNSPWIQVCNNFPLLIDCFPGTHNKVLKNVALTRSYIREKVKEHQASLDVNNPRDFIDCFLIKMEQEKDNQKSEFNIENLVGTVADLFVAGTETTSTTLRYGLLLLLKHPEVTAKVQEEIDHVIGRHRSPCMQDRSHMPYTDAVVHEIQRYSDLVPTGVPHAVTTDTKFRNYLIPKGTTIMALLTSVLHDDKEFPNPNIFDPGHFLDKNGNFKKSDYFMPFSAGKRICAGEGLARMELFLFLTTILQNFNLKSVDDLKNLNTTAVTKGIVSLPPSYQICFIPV
The experiment in a line: biochemical.

Data set [1] in a line: Risdiplam treatment of patients with SMA: safety and exposure. It is filed as in vivo, human.
For data set [2], the target named is T3, CYP2C9 (Homo sapiens, UniProt P11712). Put plainly: Direct inhibition of CYP2C9 (diclofenac) in human liver microsomes.
In the next data set the target is T4, CYP1A2 (Homo sapiens, UniProt P05177).
T4 sequence (P05177 1-516): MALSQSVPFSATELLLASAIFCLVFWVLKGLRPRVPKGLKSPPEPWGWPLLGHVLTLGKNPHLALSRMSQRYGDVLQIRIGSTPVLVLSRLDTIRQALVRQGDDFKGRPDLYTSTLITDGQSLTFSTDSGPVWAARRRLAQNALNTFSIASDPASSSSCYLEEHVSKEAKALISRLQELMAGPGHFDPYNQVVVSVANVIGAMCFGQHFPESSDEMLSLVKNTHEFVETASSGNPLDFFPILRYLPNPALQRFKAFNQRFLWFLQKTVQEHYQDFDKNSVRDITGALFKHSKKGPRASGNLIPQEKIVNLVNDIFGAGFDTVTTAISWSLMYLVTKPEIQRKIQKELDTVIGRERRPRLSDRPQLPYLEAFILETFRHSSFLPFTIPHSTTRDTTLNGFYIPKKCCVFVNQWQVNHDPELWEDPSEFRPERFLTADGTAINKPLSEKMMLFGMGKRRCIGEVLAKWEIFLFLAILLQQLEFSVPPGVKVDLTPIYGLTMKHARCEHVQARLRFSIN
Put plainly: in vitro. The conditions noted are these: pooled human liver microsomes, pH 7.4, probe phenacetin.

The target of data set [3] is T3, CYP2C9. Put plainly: Time-dependent inhibition (IC50 shift) of CYP2C9 in human liver microsomes. Type of data set: in vitro ADME. The note with it: risdiplam up to 12.5 μM. As to the method: as §1, §2, §3
A further data set addresses CYP3A4 (Homo sapiens, UniProt P08684). Put plainly: Direct inhibition of CYP3A4 (midazolam and testosterone) in human liver microsomes. The note with it: human, microsomes. Type of data set: in vitro ADME.
Data set [4] concerns the target T3, CYP2C9. Put plainly: in vitro. The note with it: pooled human liver microsomes, pH 7.4, probe diclofenac.

Sequence of CYP2D6 (P10635 whole entry): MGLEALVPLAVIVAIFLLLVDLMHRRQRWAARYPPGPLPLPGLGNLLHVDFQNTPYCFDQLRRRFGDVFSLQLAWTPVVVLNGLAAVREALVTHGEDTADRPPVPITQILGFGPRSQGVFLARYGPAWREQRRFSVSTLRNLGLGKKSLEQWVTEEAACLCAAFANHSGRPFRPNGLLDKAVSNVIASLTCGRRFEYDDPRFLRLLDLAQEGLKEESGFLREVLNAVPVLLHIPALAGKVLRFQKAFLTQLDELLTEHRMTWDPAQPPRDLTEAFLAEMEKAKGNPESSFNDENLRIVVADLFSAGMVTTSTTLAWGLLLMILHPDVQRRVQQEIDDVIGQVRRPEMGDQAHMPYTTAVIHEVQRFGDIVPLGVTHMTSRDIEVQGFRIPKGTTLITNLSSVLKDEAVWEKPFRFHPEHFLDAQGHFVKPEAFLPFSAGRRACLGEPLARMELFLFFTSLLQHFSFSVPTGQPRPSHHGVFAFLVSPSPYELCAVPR
T3 sequence (P11712 whole entry): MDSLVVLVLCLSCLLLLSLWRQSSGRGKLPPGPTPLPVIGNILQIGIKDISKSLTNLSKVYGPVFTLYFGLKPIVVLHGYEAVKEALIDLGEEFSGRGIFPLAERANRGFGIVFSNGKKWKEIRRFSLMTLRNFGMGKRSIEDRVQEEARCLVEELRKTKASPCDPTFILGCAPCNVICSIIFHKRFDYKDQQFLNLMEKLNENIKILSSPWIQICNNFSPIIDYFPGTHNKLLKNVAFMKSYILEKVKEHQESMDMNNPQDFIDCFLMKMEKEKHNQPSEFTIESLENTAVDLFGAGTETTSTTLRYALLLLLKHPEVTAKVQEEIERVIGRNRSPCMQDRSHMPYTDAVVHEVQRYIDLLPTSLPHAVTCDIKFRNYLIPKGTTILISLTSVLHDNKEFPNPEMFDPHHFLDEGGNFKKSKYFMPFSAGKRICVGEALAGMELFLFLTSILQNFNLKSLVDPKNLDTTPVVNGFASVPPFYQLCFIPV
Sequence of CYP3A4 (P08684 2-503): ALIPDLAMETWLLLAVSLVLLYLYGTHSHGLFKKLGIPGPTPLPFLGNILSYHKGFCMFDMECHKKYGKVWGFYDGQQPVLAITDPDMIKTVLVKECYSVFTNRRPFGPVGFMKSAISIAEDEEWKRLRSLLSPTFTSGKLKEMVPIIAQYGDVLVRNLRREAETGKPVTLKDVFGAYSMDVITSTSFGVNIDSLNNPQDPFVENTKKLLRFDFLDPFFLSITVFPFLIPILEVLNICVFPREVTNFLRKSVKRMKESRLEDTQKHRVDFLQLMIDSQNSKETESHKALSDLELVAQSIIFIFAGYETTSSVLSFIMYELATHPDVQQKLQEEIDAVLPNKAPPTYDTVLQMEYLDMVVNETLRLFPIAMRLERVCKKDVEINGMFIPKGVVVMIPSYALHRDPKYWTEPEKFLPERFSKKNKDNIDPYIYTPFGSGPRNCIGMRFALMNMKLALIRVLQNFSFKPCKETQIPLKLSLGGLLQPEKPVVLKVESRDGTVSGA
Sequence of CYP2C19 (P33261 whole entry): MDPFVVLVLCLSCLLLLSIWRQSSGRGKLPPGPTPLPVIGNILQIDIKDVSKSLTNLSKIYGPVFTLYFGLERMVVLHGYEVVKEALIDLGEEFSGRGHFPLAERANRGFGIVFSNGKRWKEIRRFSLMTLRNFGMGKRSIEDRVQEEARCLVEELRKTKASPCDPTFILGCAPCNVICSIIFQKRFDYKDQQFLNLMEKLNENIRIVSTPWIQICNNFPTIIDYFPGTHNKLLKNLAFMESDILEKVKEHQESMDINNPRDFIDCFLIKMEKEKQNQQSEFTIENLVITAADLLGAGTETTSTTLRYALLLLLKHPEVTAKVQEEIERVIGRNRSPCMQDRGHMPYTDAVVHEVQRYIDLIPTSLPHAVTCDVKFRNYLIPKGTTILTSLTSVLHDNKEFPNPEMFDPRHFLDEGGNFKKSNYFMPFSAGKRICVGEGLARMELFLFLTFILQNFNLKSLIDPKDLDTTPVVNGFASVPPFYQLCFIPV

For `Cc1cn2nc(-c3cc(=O)n4cc(N5CCNC6(CC6)C5)ccc4n3)cc(C)c2n1` [risdiplam, 7-(4,7-diazaspiro[2.5]octan-7-yl)-2-(2,8-dimethylimidazo[1,2-b]pyridazin-6-yl)pyrido[1,2-a]pyrimidin-4-one], the activity at CYP2C19 was found to be 102%; at CYP1A2, 94%; at CYP2C9 [4] it was 83%. Also, the IC50 on CYP2B6 was more than 12.5 µM; at CYP2C8, more than 12.5 µM; against CYP3A4 (pH 7.4, IC50, direct inhibition, substrate Midazolam) it was more than 12.5 µM; at CYP3A4 (pH 7.4, IC50, direct inhibition, substrate Testosterone), 11 µM; against CYP3A4 (pH 7.4, IC50, direct, CYP3A4-Midazolam Activity), less than 12.5 µM. Besides, the “time-dependent inhibition (in words)” value on CYP2D6 and on CYP2C9 [3] was “did not show any significant reversible or time-dependent inhibition; also recorded: No significant reversible or time-dependent inhibition; also recorded: No significant time-dependent inhibition; also recorded: low potential to cause direct or time-dependent inhibition” each time. Also, the “safety and tolerability (in words)” value in data set [1] (5 mg risdiplam, more than 1 year of treatment, patients with SMA) was “safe and well tolerated”. Besides, the AUC in data set [1] (human, in vivo, SMA patients, steady state, read-out: mean AUCtau at steady state (therapeutic exposure observed in SMA patients)) turned out to be 2000 ng·h/mL. The “% Control activity at” value on CYP2C9 [2] (direct inhibition, substrate Diclofenac, concentration not given, duplicates) came to 82%. In addition, the “reversible (direct) inhibition (in words)” value at CYP2C9 [2] (risdiplam up to 12.5 μM) is listed as “did not show any significant reversible or time-dependent inhibition; also recorded: No significant reversible or time-dependent inhibition; also recorded: No significant reversible inhibition; also recorded: low potential to cause direct or time-dependent inhibition”.

The IC50 is the point on the concentration scale where inhibition reaches its midpoint. Low readings indicate greater potency in that assay, high ones weaker potency in that assay.

The values above are taken from patent US20220168307A1, “TREATMENT OF SMA” (Hoffmann-La Roche Inc., priority 2019, published 2022).
